# Experimental data reported in PMC8453936, “Development and in vitro Profiling of Dual FXR/LTA4H Modulators” (Chemmedchem, 2021).
# Target: T1, full-length human FXR (Homo sapiens, UniProt Q96RI1)
# T1 construct: coding for the full‐length human nuclear receptors FXR and RXRα; expressed in transfected cells; host or cells: HeLa
# T1 sequence (Q96RI1 1-486): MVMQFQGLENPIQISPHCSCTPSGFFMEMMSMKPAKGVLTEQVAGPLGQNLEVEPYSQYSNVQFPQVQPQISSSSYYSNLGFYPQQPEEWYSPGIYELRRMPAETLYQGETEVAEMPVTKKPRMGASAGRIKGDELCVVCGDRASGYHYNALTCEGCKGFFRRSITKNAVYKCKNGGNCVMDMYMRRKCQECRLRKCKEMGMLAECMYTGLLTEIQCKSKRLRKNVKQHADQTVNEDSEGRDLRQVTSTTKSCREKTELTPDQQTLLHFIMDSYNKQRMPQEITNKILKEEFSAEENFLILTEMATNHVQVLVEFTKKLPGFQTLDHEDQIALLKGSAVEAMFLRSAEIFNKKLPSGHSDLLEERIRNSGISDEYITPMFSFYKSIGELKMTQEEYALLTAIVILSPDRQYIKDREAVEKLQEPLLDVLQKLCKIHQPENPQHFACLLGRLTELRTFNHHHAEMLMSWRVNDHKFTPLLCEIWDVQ
# T1 sequence (P19793 1-462 partner): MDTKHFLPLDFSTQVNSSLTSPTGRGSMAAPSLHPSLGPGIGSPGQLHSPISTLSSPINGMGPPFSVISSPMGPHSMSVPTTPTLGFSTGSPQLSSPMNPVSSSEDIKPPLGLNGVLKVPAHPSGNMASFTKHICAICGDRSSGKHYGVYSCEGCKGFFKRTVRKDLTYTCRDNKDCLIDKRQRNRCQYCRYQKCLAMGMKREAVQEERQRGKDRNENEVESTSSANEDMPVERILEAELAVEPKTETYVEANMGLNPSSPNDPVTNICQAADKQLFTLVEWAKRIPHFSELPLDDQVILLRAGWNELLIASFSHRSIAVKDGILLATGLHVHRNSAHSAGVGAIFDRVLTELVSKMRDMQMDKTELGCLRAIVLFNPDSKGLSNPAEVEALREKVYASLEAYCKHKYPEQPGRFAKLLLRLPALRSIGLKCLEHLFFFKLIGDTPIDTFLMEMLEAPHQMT
# Assay: Full-length FXR:RXR reporter gene assay (BSEP promoter, HeLa, transiently transfected)
# Assay type: cell-based
# Conditions: mean±S.E.M., n≥3
# Method: Full‐length FXR:RXR reporter gene assay. HeLa cells were grown in DMEM high glucose supplemented with 10 % FCS, sodium pyruvate (1 mM), penicillin (100 U/mL) and streptomycin (100 μg/mL) at 37 °C and 5 % CO2 and seeded in 96‐well plates 24 h before transfection with a density of 8000 cells per well. 3.5 h before transfection, medium was changed to DMEM high glucose, supplemented with sodium pyruvate (1 mM), penicillin (100 U/mL), streptomycin (100 μg/mL) and 0.5 % charcoal‐stripped FCS. Cells were then transiently transfected with using the calcium phosphate transfection method with pGL3basic‐BSEP[26, 27] (containing a shortened construct of the promotor of the bile salt export protein (BSEP) cloned into the SacI/NheI cleavage site in front of the luciferase gene), pcDNA3‐hFXR[26] and pSG5‐hRXR[38] coding for the full‐length human nuclear receptors FXR and RXRα, and pRL‐SV40 (Promega) for normalization of transfection efficiency and cell growth. 16 h after transfection, medium was changed to DMEM high glucose, supplemented with sodium pyruvate (1 mM), penicillin (100 U/mL), streptomycin (100 μg/mL) and 0.5 % charcoal‐stripped FCS. 24 h after transfection, medium was changed to DMEM without phenol red, supplemented with sodium pyruvate (1 mM), penicillin (100 U/mL), streptomycin (100 μg/mL), L‐glutamine (2 mM) and 0.5 % charcoal‐stripped FCS, now additionally containing 0.1 % DMSO and the respective test compound or 0.1 % DMSO alone as untreated control. Each sample was tested in triplicate wells and each experiment was repeated independently at least three times. Following 24 h incubation with the test compounds, cells were assayed for luciferase activity using Dual‐Glo Luciferase Assay System (Promega) according to the manufacturer's protocol. Luminescence was measured with a Tecan Spark M luminometer (Tecan). Normalization of transfection efficiency and cell growth was done by division of firefly luciferase data by Renilla luciferase data multiplied by 1000 resulting in relative light units (RLU). Fold activation was obtained by dividing the mean RLU of the tested compound at a respective concentration by the mean RLU of untreated control. EC50 and standard error of the mean values were calculated with the mean fold activation values of at least three independent experiments with SigmaPlot 10.0 (Systat Software GmbH, Erkrath, Germany) using a four‐parameter logistic regression.
smiles,measurement,setting,value
"O=C(O)c1ccnc(NC(=O)c2ccc(OCCCc3ccccc3)cc2)c1 [compound 19, 2‐(4‐(3‐Phenylpropoxy)benzamido)isonicotinic acid]",FXR efficacy (maximum FXR activation relative to 3 μM GW4064),3 μM GW4064 = 100 % activation,21±1%
same,EC50,"full-length FXR reporter gene assay, BSEP promoter, HeLa",460 ± 80 nM
